Data taken from PMC6749236, “Synthesis of Novel 2-(Het)arylpyrrolidine Derivatives and Evaluation of Their Anticancer and Anti-Biofilm Activity” (Molecules, 2019).
Where “and” joins values, the source holds several entries; their conditions need not be identical. Equal entries are not always repeated. Marks after values point to notes of the source that are not given here.

Tests used:
[1] = system: M-Hela; assay: Cytotoxicity assay (Cytell Cell Imaging, DAPI/propidium iodide), cancer cell line; format: cell-based; details: Homo sapiens, M-HeLa, read-out: IC50 Cancer Cell Line M-Hela
[2] = system: Chang liver cell line; assay: Cytotoxicity assay (Cytell Cell Imaging), normal cell line; format: cell-based; details: Homo sapiens, read-out: IC50 Normal Cell Line Chang Liver
[3] = system: Vibrio aquamarinus DSM 26054; assay: Biofilm formation, crystal violet assay; format: cell-based; details: V. aquamarinus DSM 26054, control = 100%
Method: (§1) Bacterial strains and cultivation conditions. For the detection of biofilms, formation strains Vibrio aquamarinus DSM 26054 and Acinetobacter calcoaceticus VKPM B-10353 were used. These strains form biofilms, making them useful for studying biofilms.
(§2) The bacterial strains Acinetobacter calcoaceticus VKPM B-10353, E. coli MG1655 (pRecA-lux), and E. coli MG1655 (pSoxS-lux) were cultivated in Luria–Bertani (LB) medium under constant shaking to early exponential phase at 37 °C. Cells were used immediately for stress induction tests. One hundred micrograms of ampicillin per milliliter were added into LB medium at cultivation of E. coli MG1655 (pRecA-lux) and E. coli MG1655 (pSoxS-lux). Strain V. aquamarinus DSM 26054 was grown in LB medium supplemented with 3% NaCl.
(§3) The test compounds were dissolved in DMSO to the concentration of 1 × 10^−2 M. Then, they were diluted with ethanol. The control solutions were analogous dilutions of DMSO in ethanol. The tested compounds were also compared with the standard antibiotic azithromycin. Azithromycin was dissolved in DMSO to the concentration of 5 × 10^−3 M and then diluted with deionized water.
(§4) Test system for evaluation of biofilms production. To quantify the formation of biofilms, the crystal violet assay was used, with some modifications. The necessary concentrations of the test compounds were prepared as described above.
(§5) V. aquamarinus DSM 26054 was cultivated for 24 h in LB medium supplemented with 3% NaCl in the Innova 40R shaker incubator (New Brunswick Scientific, USA) at 25 °C and 200 rpm. A. calcoaceticus VKPM B-10353 was cultivated for 24 h in LB medium in the Innova 40R shaker incubator (New Brunswick Scientific, Enfield, CT, USA) at 30 °C and 200 rpm. Then, the suspensions of the daily culture of V. aquamarinus DSM 26054 and A. calcoaceticus VKPM B-10353 were diluted with LB medium supplemented with 3% NaCl to the density of 1 × 10^8 cells/mL.
(§6) The resulting suspension (180 μL) was added to the wells of a polystyrene microplate (Nuova Aptaca, Canelli, Italy). To some of the wells, 20 μL of the test substances at various concentrations were added. Since solvents used could also influence the biofilm formation, 20 μL of the appropriate solvent was added to the other part of the wells at same dilutions (control). Six replicates were done for each treatment and control. The microplate was covered with a lid and wrapped with Parafilm (Bemis Company, Inc., Oshkosh, WI, USA).
(§7) After incubation at 25 °C for 72 h, biofilms were stained. The contents in the wells were removed by means of a dispenser. The wells were then carefully washed three times with 250 μL of sterile saline. The microplates were shaken to remove all non-adherent bacteria. Biofilms were fixed with 200 μL of 96% ethanol for 15 min. After the microplates had dried in air, 200 μL of 0.5% crystal violet was introduced into the wells. After 10 min, the dye was removed. The excess dye was removed by washing with water three times. After the microplates were air-dried, the dye in the wells bound to biofilms was dissolved with 200 μL of 96% ethanol. The extraction level (absorption) of crystal violet by ethanol was measured after 60 minutes at a wavelength of 570 nm using a FLUOstar Omega microplate reader (BMG Labtech, Offenburg, Germany) in optical density units (OD570). The intensity of biofilm formation directly corresponds to the intensity of staining of the contents of the wells with the dye. Biofilm formation was determined by the difference between the mean OD readings obtained in the presence of compounds and the control.
(§8) Each experiment was performed in triplicate. The values were expressed as mean + SD. Student’s t-test was used to compare these values. Differences were considered statistically significant at p < 0.05.

[4] = system: Acinetobacter calcoaceticus VKPM B-10353; assay: Biofilm formation, crystal violet assay; format: cell-based; details: A. calcoaceticus VKPM B-10353; for Biofilm Formation: control = 100%; for Biofilm formation with respect to control, over the investigated concentrations: 1 × 10^−9–1 × 10^−5 M
Method: as §1, §2, §3, §4, §5, §6, §7, §8

[5] = system: Escherichia coli MG1655 (pRecA-lux); assay: Genotoxicity, bacterial lux-biosensor; format: cell-based
From the text: (§9) E. coli MG1655 (pRecA-lux) was used for the evaluation of the genotoxicity of the synthesized compounds. The biosensor with the PrecA promotor fixes the presence of the factors causing damage of DNA in a cell. The biosensor E. coli MG1655 (pSoxS-lux) was used for the evaluation of prooxidant activity. The biosensor with the PsoxS promoter fixes the production of superoxide anion and NO [75]. Bioluminescent strains were obtained by the transformation of E. coli MG1655 by hybrid plasmids pRecA-lux, pSoxS-lux. The gene cassette luxCDABE Photorhabdus luminescens under the control PrecA promoters was used in this biosensor. This plasmid was created on the basis of pBR322 and contained a selective marker of ampicillin resistance (Amp gene). The strains were kindly furnished by Manukhov I.V., Federal State Unitary Enterprise “GosNIIGenetika”).
as §2
(§10) Biosensors assay procedure. The detailed protocol of toxicity testing by means of a bacterial lux-biosensors is described in the article.
(§11) Calculation. The criterion of toxic influence was bioluminescence intensity change of the test object in the researched sample in comparison with the control sample.
(§12) The induction factor (I) was defined as the relation of luminescence intensity of a lux-biosensor suspension containing tested sample (Lc) to the luminescence intensity of a lux-biosensor control suspension (Lk): I = Lc/Lk.
If at significant differences from control induction factor values were ≤2, the detected genotoxic effect was evaluated as “weak”, if they were in the range from 2 to 10 as “medium”, and above 10 as “strong”. All the experiments were carried out three times independently.
(§13) Difference reliability of bioluminescence in experiment from control value was estimated by t-criterion with the help of Excel software. The conclusions about sample toxicity were made at p < 0.05.

[6] = system: E. coli MG1655 (pSoxS-lux); assay: Prooxidant activity, bacterial lux-biosensor; format: cell-based, Escherichia coli
From the text: as §9, §2, §10, §11, §12, §13

Compound	Biofilm Formation ([3]; 1 × 10^−5 M)	Biofilm Formation ([3]; 1 × 10^−6 M)	Biofilm Formation ([3]; 1 × 10^−7 M)	Biofilm Formation ([3]; 1 × 10^−8 M)	Biofilm Formation ([3]; 1 × 10^−9 M) [%]	Biofilm Formation ([4]; 1 × 10^−5 M)	Biofilm Formation ([4]; 1 × 10^−6 M) [%]	Biofilm Formation ([4]; 1 × 10^−7 M)	Biofilm Formation ([4]; 1 × 10^−8 M)	Biofilm Formation ([4]; 1 × 10^−9 M)	Biofilm formation with respect to control, over the investigated concentrations [4]	further results
Cc1cc(O)c(C2CCCN2C(=O)Nc2ccc(Br)cc2)c(=O)o1 (centres unmarked) [7d, N-(4-Bromophenyl)-2-(4-hydroxy-6-methyl-2-oxo-2H-pyran-3-yl)pyrrolidine-1-carboxamide]	–	–	–	–	–	–	–	–	–	–	–	IC50 [1]: > 100 µM; IC50 [2]: > 100 µM
CC[C@H]1OC(=O)[C@H](C)[C@@H](O[C@H]2C[C@@](C)(OC)[C@@H](O)[C@H](C)O2)[C@H](C)[C@@H](O[C@@H]2O[C@H](C)C[C@H](N(C)C)[C@H]2O)[C@](C)(O)C[C@@H](C)CN(C)[C@H](C)[C@@H](O)[C@]1(C)O [Azithromycin, reference compound]	81.5% and 81.50 * %	103.80%	99.39%	102.43%	103.42	101.79%	106.07	105.71%	96.07%	95.00%	not detected	–
O=[N+]([O-])c1c(Cl)cc2c(no[n+]2[O-])c1Nc1cccc(O)c1 [compound 4, 6-Chloro-4-((3-hydroxyphenyl)amino)-5-nitrobenzo[c][1,2,5]oxadiazole 1-oxide]	96.57%	43.56 * %	11.34 * %	9.31 * %	66.58	149.22* %	97.99	78.63 * %	62.12 * %	86.67 * %	both suppressing and stimulating	DNA-damaging property, in words ([5]; 10^−9–10^−5 M, with and without S9): do not belong to the class of DNA-damaging substances; Genotoxicity (induction factor, I) ([5]; with metabolic activation (+S9), 10^−5 M): 1.11 ± 0.01; Genotoxicity (induction factor, I) ([5]; with metabolic activation (+S9), 10^−6 M): 1.28 ± 0.04; Genotoxicity (induction factor, I) ([5]; with metabolic activation (+S9), 10^−7 M): 1.18 ± 0.01; Genotoxicity (induction factor, I) ([5]; with metabolic activation (+S9), 10^−8 M): 1.11 ± 0.02; Genotoxicity (induction factor, I) ([5]; with metabolic activation (+S9), 10^−9 M): 1.19 ± 0.01; Genotoxicity (induction factor, I) ([5]; without metabolic activation (-S9), 10^−5 M): 1.10 ± 0.00; Genotoxicity (induction factor, I) ([5]; without metabolic activation (-S9), 10^−6 M): 1.27 ± 0.01; Genotoxicity (induction factor, I) ([5]; without metabolic activation (-S9), 10^−7 M): 1.14 ± 0.02; Genotoxicity (induction factor, I) ([5]; without metabolic activation (-S9), 10^−8 M): 1.27 ± 0.07; Genotoxicity (induction factor, I) ([5]; without metabolic activation (-S9), 10^−9 M): 1.21 ± 0.04; Prooxidant activity (induction factor) ([6]; 10^−5 M): 1.64 ± 0.04; Prooxidant activity (induction factor) ([6]; 10^−6 M): 1.54 ± 0.07; Prooxidant activity (induction factor) ([6]; 10^−7 M): 1.74 ± 0.14; Prooxidant activity (induction factor) ([6]; 10^−8 M): 2.08 ± 0.05; Prooxidant activity (induction factor) ([6]; 10^−9 M): 1.85 ± 0.10; effect of superoxide-anion radical or NO level increase, in words ([6]; 10^−9–10^−8 M and 10^−7–10^−5 M): weak effect
